We go through 3 compounds from patent US7078398B2, “Compositions and methods for treating or preventing convulsions or seizures” (Vela Pharamaceuticals, Inc., priority 2001, dated 2006).

For test [1], the system named is picrotoxin-induced seizures in male NSA mice. The test is described as follows: animal or person. The conditions noted are these: for anti-convulsant activity against picrotoxin-induced seizures (conclusion): NSA mice; for ED50: Mus musculus; for ED50 / ED50 (95% confidence limit): i.p. 15 minutes prior to picrotoxin 5 mg/kg s.c. It is filed as in vivo. As to the method: Anticonvulsant activity against picrotoxin-induced seizures is considered evidence of clinical antiepileptic potential and reason for further evaluation of a test compound's anticonvulsant profile (Swinyard, E. A. et al., General principles: experimental detection, quantification and evaluation of anticonvulsants. In: Antiepileptic Drugs, D. M. Woodbury et al., eds. Raven Press, New York (1990) pp. 111–126).
Picrotoxin (5 mg/kg, Sigma Chem. Co., St. Louis, Mo., USA) was dissolved in saline and administered subcutaneously to induce seizures. In addition, picrotoxin alone was administered to seven animals as a control. All test drugs were dissolved in dimethylsulfoxide (DMSO).
After picrotoxin injection, mice were placed into a plexiglass cage for 30 minutes of observation. The appearance of seizures was defined as the presence of a single episode of clonic or tonic activity (including myoclonic jerks) during the 30 minute observation period. […] Animals were euthanized immediately after the observation period by CO2 inhalation. The ED50 (the dose of test compound at which half of the animals were protected against picrotoxin-induced seizures) values and their 95% confidence limits were calculated by the method of Litchfield and Wilcoxon (J. Pharmacol. Exp. Ther. 96:99–113 (1949)).

Test [2] relates to convulsions induced by the compound Ro 5-4864 in mice. The conditions noted are these: 100 mg/kg; cited from earlier work.
For test [3], the system named is picrotoxin convulsions in Tuck No. 1 mice. The settings on record: cited from earlier work.
The test system of test [4] is pentylenetetrazole convulsions in Tuck No. 1 mice. The settings on record: cited from earlier work.
In test [5] the test system is convulsions induced by tryptamine in mice. The conditions noted are these: Table 6 of Ito; cited from earlier work.
[6] abbreviates: Example 2, enantiomers of Example 1, 30 minute observation.
The mark [7] stands for this setting: Example 4, enantiomers of Example 3.

“Also recorded” adds a separate entry of the source. Read-outs that look alike come from different tables or passages of the source. Bounds are passed on as bounds.

For orientation: ED50 means the midpoint of the dose-response relation. On to `CCC1C(C)=NN=C(c2ccc(OC)c(OC)c2)c2cc(OC)c(OC)cc21` (racemic) [tofisopam, 1-(3,4-dimethoxy-phenyl)-4-methyl-5-ethyl-7,8-dimethoxy-5H-2,3-benzodiazepine], for which, in test [1] (Example 2), the “anti-convulsant activity against picrotoxin-induced seizures (conclusion)” value is “intrinsic anti-convulsant activity”. Moreover, in test [1] (Example 4), the “anti-convulsant activity (conclusion)” value was “intrinsic anti-convulsant activity”. Also, the ED50 in test [1] (read-out: ED50 (95% confidence limit), Example 2, enantiomers of Example 1, 30 minute observation) came to 37.8 mg/kg. Moreover, the ED50 in test [1] (read-out: ED50 (95% confidence limit), Example 4, enantiomers of Example 3) amounted to 51.4 mg/kg. Further, in test [2], the “myoclonic jerks in treated mice” value is reported as “all of the treated mice still experienced myoclonic jerks” and the “number of mice having convulsions” value was “reduced the number of mice having convulsions”. Besides, the “number or severity of convulsions” value in test [3] (10–50 mg/kg, 6 mg/kg of picrotoxin) was “no affect”. Further, in test [3] (25–50 mg/kg), the “effect in combination with 3 mg/kg picrotoxin” value is listed as “proconvulsant activity”. In test [4] (10–25 mg/kg, 60 mg/kg of pentylenetetrazole), the “effect as an anti-convulsant” value is “no effect”. For the same compound, in test [4] (25–50 mg/kg), the “effect in combination with 30 mg/kg pentylenetetrazole” value is given as “proconvulsant activity”. In addition, the incidence of convulsions result in test [5] is reported as “no effect”.
Consider `CC[C@@H]1C(C)=NN=C(c2ccc(OC)c(OC)c2)c2cc(OC)c(OC)cc21` [S-tofisopam], for which the “protection against picrotoxin-induced seizures” value in test [1] (Example 2, 40 mg/kg i.p.) is listed as “over 60%”. Further, in test [1] (Example 2), the “anti-convulsant activity against picrotoxin-induced seizures (conclusion)” value is on record as “intrinsic anti-convulsant activity”. For the same compound, the “ED50 (95% confidence limit)” value in test [1] (setting [6]) is ~35 (28–43) mg/kg; in test [1] (setting [7]), 15.1 (7.6–30.1) mg/kg. The “anti-convulsant activity (conclusion)” value in test [1] (Example 4) is reported as “intrinsic anti-convulsant activity”. Besides, the “anti-convulsant activity compared with the racemate” value in test [1] (Example 4, highly pure S-tofisopam) is listed as “significantly greater anti-convulsant activity”.
In the case of `CC[C@H]1C(C)=NN=C(c2ccc(OC)c(OC)c2)c2cc(OC)c(OC)cc21` [R-tofisopam], the “anti-convulsant activity against picrotoxin-induced seizures (conclusion)” value in test [1] (Example 2) is listed as “no anti-convulsant activity”. For the same compound, the “inhibition of picrotoxin-induced convulsions” value in test [1] (Example 2, at either 20 or 50 mg/kg i.p.) was “did not inhibit”. Besides, the results for the “ED50 (95% confidence limit)” value in test [1] (setting [6]) and in test [1] (setting [7]) were “Inactive” and “could not be calculated; also recorded: not calculable”, respectively. The “protection against picrotoxin-induced seizures” value was “no further increase in protection” in test [1] (Example 4, 90 mg/kg) and “no protection” in test [1] (Example 4, 128 mg/kg). Besides, the “protection from picrotoxin-induced seizures, all doses tested” value in test [1] (Example 4, 32-128 mg/kg) is listed as under 50%. Besides, the anticonvulsant activity result in test [1] (Example 4, doses of 32 mg/kg and 64 mg/kg) is “exhibits anticonvulsant activity”.
